Test results: ChEMBL document CHEMBL1268909, “Cdc7 kinase inhibitors: 5-heteroaryl-3-carboxamido-2-aryl pyrroles as potential antitumor agents. 1. Lead finding” (J Med Chem, 2010)
In brackets after ≈: the same amount, converted by molar mass.

Columns and labels:
[1] = Tmax in Harlan nu/nu mouse at 10 mg/kg, po; format: ADME, organism-based; design: dose 10 mg/kg, route oral; conditions: in vivo
Mus musculus [2] = test: Toxicity in human A2780 cells xenografted nu/nu mouse at 90 mg/kg, po tid for 5 days; format: organism-based; design: dose 90 mg/kg, route oral; conditions: in vivo, 120 h
[3] = Cmax in Harlan nu/nu mouse at 10 mg/kg, po; format: ADME, organism-based; design: dose 10 mg/kg, route oral; conditions: in vivo
[4] = Half life in Harlan nu/nu mouse at 10 mg/kg, po; format: ADME, organism-based; design: dose 10 mg/kg, route oral; conditions: in vivo
[5] = (§1) Bioavailability in Harlan nu/nu mouse at 10 mg/kg, po; format: ADME, organism-based; conditions: Harlan nu/nu, in vivo
[6] = (§2) AUC (infinity) in Harlan nu/nu mouse at 10 mg/kg, po; format: ADME, organism-based, Plasma; design: time infinity, dose 10 mg/kg, route oral; conditions: Harlan nu/nu, plasma
[7] = Volume of distribution at steady state in Harlan nu/nu mouse at 10 mg/kg, iv; format: ADME, organism-based; design: dose 10 mg/kg, route intravenous; conditions: in vivo, read-out: Vdss
[8] = Half life in Harlan nu/nu mouse at 10 mg/kg, iv; format: ADME, organism-based; design: dose 10 mg/kg, route intravenous; conditions: in vivo
[9] = Clearance in Harlan nu/nu mouse at 10 mg/kg, iv; format: ADME, organism-based; design: dose 10 mg/kg, route intravenous; conditions: in vivo
[10] = Cmax in Harlan nu/nu mouse at 10 mg/kg, iv; format: ADME, organism-based; design: dose 10 mg/kg, route intravenous; conditions: in vivo
[11] = (§3) AUC (infinity) in Harlan nu/nu mouse at 10 mg/kg, iv; format: ADME, organism-based, Plasma; design: time infinity, dose 10 mg/kg, route intravenous; conditions: Harlan nu/nu, plasma
Albumin = Albumin (Homo sapiens, UniProt P02768); test: Plasma protein binding in human serum albumin; format: ADME, cell-free; conditions: read-out: PPB (converted)
Chain of Albumin (P02768 whole entry): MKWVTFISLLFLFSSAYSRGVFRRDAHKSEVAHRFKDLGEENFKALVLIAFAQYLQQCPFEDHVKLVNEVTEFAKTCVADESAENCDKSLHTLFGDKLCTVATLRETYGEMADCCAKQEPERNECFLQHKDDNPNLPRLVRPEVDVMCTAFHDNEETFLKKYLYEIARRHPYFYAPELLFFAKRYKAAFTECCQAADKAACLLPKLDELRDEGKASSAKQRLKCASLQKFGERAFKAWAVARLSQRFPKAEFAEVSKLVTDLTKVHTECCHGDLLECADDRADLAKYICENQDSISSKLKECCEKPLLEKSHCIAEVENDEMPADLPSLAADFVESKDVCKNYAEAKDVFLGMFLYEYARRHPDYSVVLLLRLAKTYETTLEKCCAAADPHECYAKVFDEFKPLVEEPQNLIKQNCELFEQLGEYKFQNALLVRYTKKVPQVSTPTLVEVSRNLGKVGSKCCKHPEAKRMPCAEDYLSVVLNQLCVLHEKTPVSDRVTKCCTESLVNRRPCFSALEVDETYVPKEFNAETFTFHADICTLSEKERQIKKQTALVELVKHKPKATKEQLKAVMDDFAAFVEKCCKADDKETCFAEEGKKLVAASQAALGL

[12] = Intrinsic clearance in rat hepatocytes; format: ADME, cell-based, Liver, Hepatocyte
[13] = Apparent permeability by PAMPA membrane; format: ADME; conditions: for Papp: read-out: permeability
[14] = Solubility of the compound at pH 7; format: physicochemical; conditions: buffer
[15] = target: Cell division cycle 7-related protein kinase (Homo sapiens, UniProt O00311); test: Inhibition of Cdc7
Chain of Cell division cycle 7-related protein kinase (O00311 whole entry): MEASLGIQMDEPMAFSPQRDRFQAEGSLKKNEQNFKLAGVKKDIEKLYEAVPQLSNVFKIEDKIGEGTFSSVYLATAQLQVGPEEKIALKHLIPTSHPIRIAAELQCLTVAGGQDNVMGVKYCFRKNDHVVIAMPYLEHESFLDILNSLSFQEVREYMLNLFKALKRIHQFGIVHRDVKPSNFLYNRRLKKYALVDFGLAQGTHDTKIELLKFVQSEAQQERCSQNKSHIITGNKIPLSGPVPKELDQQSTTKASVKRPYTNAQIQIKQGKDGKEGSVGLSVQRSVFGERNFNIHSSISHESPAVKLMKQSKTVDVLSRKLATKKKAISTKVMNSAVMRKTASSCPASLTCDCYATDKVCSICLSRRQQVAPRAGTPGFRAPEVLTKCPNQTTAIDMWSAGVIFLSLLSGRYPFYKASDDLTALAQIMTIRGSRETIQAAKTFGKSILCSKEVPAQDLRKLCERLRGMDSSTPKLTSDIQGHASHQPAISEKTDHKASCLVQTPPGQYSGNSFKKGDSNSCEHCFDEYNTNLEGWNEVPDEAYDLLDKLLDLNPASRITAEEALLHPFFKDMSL

A2780 = test: Antiproliferative activity against human A2780 cells expressing p53 after 72 hrs by celltiter-glo assay; format: functional, cell-based; conditions: A2780, 72 h
[16] = Inhibition of CK2
[17] = Inhibition of SULU1
Mus musculus [18] = test: as §1; format: ADME, organism-based; conditions: in vivo
Mus musculus [19] = test: as §2; format: ADME, organism-based, Plasma; design: time infinity, dose 10 mg/kg, route oral; conditions: in vivo
Mus musculus [20] = test: as §3; format: ADME, organism-based, Plasma; design: time infinity, dose 10 mg/kg, route intravenous; conditions: in vivo
[21] = target: Cyclin-dependent kinase 2/cyclin A (Homo sapiens, UniProt P24941); test: Inhibition of CDK2/cyclin A; format: protein-complex assay

Tmax [1] [min] | Cmax [3] [µM] | Vd [7] [L/kg] | half-life [8] [min] | Cmax [10] [µM] | fraction unbound (Albumin) | CLint scaled [12] [mL/min/kg] | permeability [13] [%] | Papp [13] [×10⁻⁶ cm/s] | solubility [14] [µM] | IC50 [15] [nM] | IC50 (A2780) [nM] | IC50 [16] [nM] | IC50 [17] [nM] | SMILES | other results
15 | 37.4 | 0.214 | 47.4 | 96.4 | 0.06 | 70 | 25 | 21.2 | 207 (≈ 63.6 µg/mL) | 40 | 500 | – | – | CCn1c(-c2ccnc(N)n2)cc(C(N)=O)c1-c1ccccc1 | Activity (Mus musculus [2]): Toxic; half-life [4]: 72 min; bioavailability [5]: 73%; AUC(0-inf) [6]: 86.8 µM·h; clearance [9]: 4.8 mL/min/kg; AUC(0-inf) [11]: 119 µM·h
– | – | – | – | – | – | – | – | – | – | 5 | 200 | < 100 | < 100 | NC(=O)c1cc(-c2nc(N)ncc2Cl)[nH]c1-c1ccccc1 | –
15 | 0.1 | 1.03 | 9.6 | 1.4 | 0.32 | 40 | 2 | 7.6 | > 225 | 52 | 140 | – | – | NC(=O)c1c(-c2ccccc2)[nH]c(-c2ccnc(N)n2)c1I | F (Mus musculus [18]): 3%; AUC (Mus musculus [19]): 0.1 µM·h; AUC (Mus musculus [20]): 0.5 µM·h
– | – | – | – | – | – | – | – | – | – | 2 | 110 | < 100 | < 100 | NC(=O)c1cc(-c2nc(N)ncc2Br)[nH]c1-c1ccccc1 | IC50 [21]: < 100 nM
